Data reported in publication PMC4999309, “Structures of TorsinA and its disease-mutant complexed with an activator reveal the molecular basis for primary dystonia” (eLife, 2016).

Target: T1, TorsinAEQ-LULL1 (TorsinA-ATP-LULL1) (Homo sapiens, UniProt O14656+Q8NFQ8, O14656:E171Q)
T1 construct: gene TOR1A; TorsinA 51-332 (E171Q ATP trap), N-terminal 10xHis-7xArg tag cut by 3C; untagged luminal domain LULL1 233-470; co-expressed in E. coli with alpaca nanobody VHH-BS2 (crystallisation chaperone); heterodimer plus nanobody
Test: X-ray crystal structure, […] Å
Format: binding
Settings: 2 mM ATP, pH 6.5; crystallised with nanobody VHH-BS2; ATP in Walker A/B nucleotide site with LULL1 Arg449 finger

For `Nc1ncnc2c1ncn2[C@@H]1O[C@H](COP(=O)(O)OP(=O)(O)OP(=O)(O)O)[C@@H](O)[C@H]1O` [ATP], the “X-ray crystal structure, 1.40 Å” value was “An ATP molecule is bound in the manner characteristic of P-loop NTPases”.
